Reference: patent US7205308B2, “Trisubstituted 7-aminopyrazolopyrimidines as cyclin dependent kinase inhibitors” (Schering Corporation, priority 2002, dated 2007)
“And” between values parts separate entries of the source, which are not always exact repeats. Equal entries are not always repeated.

Experiments:
Cyclin E/CDK2 = molecular target: T1, Cyclin E/CDK2 (Homo sapiens, UniProt P24941); test: Cyclin E/CDK2 in vitro kinase assay (SPA, 33P-ATP, biotinylated Histone H1 peptide); assay type: biochemical; settings: recombinant cyclin E/CDK2 from SF9 cells; 8 point serial dilutions in duplicate; 1 hour at room temperature
T1 construct: The expressed protein was approximately 34 kDa in size; made in house; host or cells: SF9 insect cells (baculovirus co-infection)

melting point | Compound | IC50 (Cyclin E/CDK2)
> 250 °C | CCc1cnn2c(Nc3ccc(S(=O)(=O)O)cc3)cc(-c3ccccc3)nc12 | –
206 to 208 °C | O=S(=O)(O)c1cccc(Nc2cc(-c3ccccc3)nc3c(Br)cnn23)c1 | –
127 to 129 °C | CC(C)(C)OC(=O)N1CCC(NS(=O)(=O)c2ccc(Nc3cc(-c4ccccc4)nc4c(Br)cnn34)cc2)CC1 | –
216 to 218 °C | O=S(=O)(NCc1ccccc1)c1ccc(Nc2cc(-c3ccccc3)nc3c(Br)cnn23)cc1 | –
228 to 230 °C | CN1CCN(S(=O)(=O)c2ccc(Nc3cc(-c4ccccc4)nc4c(Br)cnn34)cc2)CC1 | –
214 to 215 °C | CC(C)c1cc(Nc2ccc(S(C)(=O)=O)cc2)n2ncc(Br)c2n1 | –
98 to 100 °C | CC(CO)(CO)NS(=O)(=O)c1ccc(Nc2cc(-c3ccccc3)nc3c(Br)cnn23)cc1 | –
> 200 °C (dec.) | O=S(=O)(NC1CCCC1)c1ccc(Nc2cc(-c3ccccc3)nc3c(Br)cnn23)cc1 | –
166 to 168 °C | CC(C)c1cc(Nc2ccccc2)n2ncc(Br)c2n1 | –
213 to 216 °C | CC(C)c1cnn2c(Nc3ccc(S(C)(=O)=O)cc3)cc(-c3ccccc3)nc12 | –
– | Clc1ccccc1-c1cc(Nc2ccccc2)n2ncc(Br)c2n1 [Example 2] | 510 nM
101 to 103 °C | O=S(=O)(NCc1ccccn1)c1ccc(Nc2cc(-c3ccccc3)nc3c(Br)cnn23)cc1 | –
> 250 °C | O=S(=O)(O)c1ccc(Nc2cc(-c3ccccc3F)nc3c(Br)cnn23)cc1 | –
110 to 114 °C | O=S(=O)(NCc1cccnc1)c1ccc(Nc2cc(-c3ccccc3)nc3c(Br)cnn23)cc1 | –
232 to 235 °C | CS(=O)(=O)c1ccc(Nc2cc(-c3ccccc3F)nc3c(Cl)cnn23)cc1 | –
249 to 253 °C | CS(=O)(=O)c1ccc(Nc2cc(-c3ccc(Cl)cc3)nc3c(Br)cnn23)cc1 | –
99 to 101 °C | CCc1cnn2c(Nc3ccc(S(=O)(=O)NCCN(C)C)cc3)cc(-c3ccccc3)nc12 | –
206 to 208 °C | O=S(=O)(O)CCNS(=O)(=O)c1ccc(Nc2cc(-c3ccccc3)nc3c(Br)cnn23)cc1 | –

melting point | Compound | IC50 (Cyclin E/CDK2)
182 to 184 °C | COC(=O)CNS(=O)(=O)c1ccc(Nc2cc(-c3ccccc3)nc3c(Br)cnn23)cc1 | –
237 to 239 °C | CN(C)S(=O)(=O)c1ccc(Nc2cc(-c3ccccc3)nc3c(Br)cnn23)cc1 | –
108 to 110 °C | O=S(=O)(N[C@@H](CO)Cc1ccccc1)c1ccc(Nc2cc(-c3ccccc3)nc3c(Br)cnn23)cc1 | –
202 to 204 °C | CS(=O)(=O)c1ccc(Nc2cc(-c3ccccc3)nc3c(Br)cnn23)cc1 | –
115 to 120 °C | CC(O)CNS(=O)(=O)c1cccc(Nc2cc(-c3ccccc3)nc3c(Br)cnn23)c1 (stereo not shown) | –
– | CS(=O)(=O)c1ccc(Nc2cc(-c3ccccc3Cl)nc3c(Br)cnn23)cc1 [Example 1] | 400 nM and 1400 nM
147 to 150 °C | O=S(=O)(Nc1ccccc1)c1ccc(Nc2cc(-c3ccccc3)nc3c(Br)cnn23)cc1 | –
192 to 194 °C | CCc1cnn2c(Nc3ccc(S(C)(=O)=O)cc3)cc(-c3ccccc3)nc12 | –
102 to 105 °C | O=S(=O)(N[C@H](CO)Cc1ccccc1)c1ccc(Nc2cc(-c3ccccc3)nc3c(Br)cnn23)cc1 | –
165 to 168 °C | O=S(=O)(NCCCO)c1ccc(Nc2cc(-c3ccccc3)nc3c(Br)cnn23)cc1 | –
210 to 211 °C | CS(=O)(=O)c1ccc(Nc2cc(-c3ccccc3)nc3c(C4CC4)cnn23)cc1 | –
87 to 90 °C | O=S(=O)(NCCO)c1cccc(Nc2cc(-c3ccccc3)nc3c(Br)cnn23)c1 | –
117 to 118 °C | CS(=O)(=O)c1ccc(Nc2cc(-c3ccccc3F)nc3c(Br)cnn23)cc1 | –
210 to 212 °C | CS(=O)(=O)c1ccc(Nc2cc(-c3cccc(C(F)(F)F)c3)nc3c(Br)cnn23)cc1 | –
> 200 °C (dec.) | CC(CO)NS(=O)(=O)c1ccc(Nc2cc(-c3ccccc3)nc3c(Br)cnn23)cc1 (stereo not shown) | –
144 °C | CC(C)(C)c1cc(Nc2ccccc2)n2ncc(Br)c2n1 | –
195 to 197 °C | CC(C)(C)OC(=O)NCCNS(=O)(=O)c1ccc(Nc2cc(-c3ccccc3)nc3c(Br)cnn23)cc1 | –

Compound | melting point | IC50 (Cyclin E/CDK2)
CCNS(=O)(=O)c1ccc(Nc2cc(-c3ccccc3)nc3c(Br)cnn23)cc1 [Example 28] | 101 to 104 °C | 80 nM
O=S(=O)(O)c1ccc(Nc2cc(-c3ccccc3)nc3c(Br)cnn23)cc1 [Example 22] | > 250 °C | 82 nM
CN(C)CCCNS(=O)(=O)c1ccc(Nc2cc(-c3ccccc3)nc3c(Br)cnn23)cc1 [Example 53] | 78 to 80 °C | 11 nM
CN(C)CC(C)(C)CNS(=O)(=O)c1ccc(Nc2cc(-c3ccccc3)nc3c(Br)cnn23)cc1 [Example 48] | 163 to 165 °C | 25 nM
O=S(=O)(Nc1ccncc1)c1ccc(Nc2cc(-c3ccccc3)nc3c(Br)cnn23)cc1 [Example 38] | 192 to 195 °C | 40 nM
COCCNS(=O)(=O)c1ccc(Nc2cc(-c3ccccc3)nc3c(Br)cnn23)cc1 [Example 42] | 172 to 173 °C | 70 nM
NS(=O)(=O)c1ccc(Nc2cc(-c3ccccc3)nc3c(Br)cnn23)cc1 [Example 31] | 206 to 208 °C | 45 nM
Fc1ccccc1-c1cc(Nc2ccccc2)n2ncc(Cl)c2n1 [Example 3] | 112 to 116 °C | 42 nM
O=S(=O)(NC(CO)CO)c1ccc(Nc2cc(-c3ccccc3)nc3c(Br)cnn23)cc1 [Example 50] | 122 to 124 °C | 30 nM
CN(C)CCNS(=O)(=O)c1ccc(Nc2cc(-c3ccccc3)nc3c(Br)cnn23)cc1 [Example 43] | 165 to 167 °C | 34 nM
CNS(=O)(=O)c1ccc(Nc2cc(-c3ccccc3)nc3c(Br)cnn23)cc1 [Example 32] | 231 to 233 °C | 57 nM
O=S(=O)(NCCO)c1ccc(Nc2cc(-c3ccccc3)nc3c(Br)cnn23)cc1 [Example 30] | 175 to 177 °C | 29 nM
O=S(=O)(c1ccc(Nc2cc(-c3ccccc3)nc3c(Br)cnn23)cc1)N(CCO)CCO [Example 47] | 90 to 92 °C | 34 nM
